7 compounds from BindingDB's records for doi:10.1016/j.bmcl.2003.09.058 (Pharmacor, 2003) can be followed below.

The term Ki denotes a dissociation constant, usually derived from enzyme kinetics or from competition with a known ligand. A low value points to tighter binding.

The target of this assay is T1, Dimer of Gag-Pol polyprotein [501-599] (Human immunodeficiency virus 1, UniProt P03367).
T1 construct: 501-599
Nature of the assay: Protease Inhibition Assay. The settings on record: pH 4.7; 30 °C. The protocol:
HIV-1 protease activity was measured by a continuous fluorometric assay using the internally quenched fluorogenic substrate DABCYL-Ser-Gln-Asn-Tyr-Pro-Ile-Val-Gln-EDANS. The proteolytic activity can be monitored by the increase in fluorescence intensity, and the protease products were analyzed by HPLC.

For `Cc1ccc(S(=O)(=O)N(CC(C)C)[C@@H](CCCCNC(=O)OCc2ccccc2)C(=O)O)cc1` [(2S)-6-{[(benzyloxy)carbonyl]amino}-2-[(4-methylbenzene)(2-methylpropyl)sulfonamido]hexanoic acid], the inhibitory constant (Ki) was > 300 nM. Next, `Cc1ccc(S(=O)(=O)N(CC(C)C)[C@@H](CCCCNC(=O)c2ccccc2)C(=O)O)cc1` [(2S)-2-[(4-methylbenzene)(2-methylpropyl)sulfonamido]-6-(phenylformamido)hexanoic acid]: > 300 nM; `Cc1ccc(S(=O)(=O)N(CC(C)C)[C@@H](CCCCNC(=O)CCCc2ccccc2)C(=O)O)cc1` [(2S)-2-[(4-methylbenzene)(2-methylpropyl)sulfonamido]-6-(4-phenylbutanamido)hexanoic acid]: > 300 nM; `Cc1ccc(S(=O)(=O)N(CC(C)C)[C@@H](CCCCNC(=O)C(Cc2ccccc2)C(C)(C)C)C(=O)O)cc1` (stereo partly drawn) [(2S)-6-(2-benzyl-3,3-dimethylbutanamido)-2-[(4-methylbenzene)(2-methylpropyl)sulfonamido]hexanoic acid]: > 300 nM.

On to `Cc1ccc(S(=O)(=O)N(CC(C)C)[C@@H](CCCCNC(=O)Cc2ccccc2)C(=O)O)cc1` [(2S)-2-[(4-methylbenzene)(2-methylpropyl)sulfonamido]-6-(1-phenylacetamido)hexanoic acid], for which the Ki is > 300 nM. Under `Cc1ccc(S(=O)(=O)N(CC(C)C)[C@@H](CCCCNC(=O)/C=C/c2ccccc2)C(=O)O)cc1` [(2S)-2-[(4-methylbenzene)(2-methylpropyl)sulfonamido]-6-[(2E)-3-phenylprop-2-enamido]hexanoic acid] stands > 300 nM; under `Cc1ccc(S(=O)(=O)N(CC(C)C)[C@@H](CCCCNC(=O)C2CC2c2ccccc2)C(=O)O)cc1` (stereo partly drawn) [(2S)-2-[(4-methylbenzene)(2-methylpropyl)sulfonamido]-6-[(2-phenylcyclopropyl)formamido]hexanoic acid], > 300 nM.
